Here are results for seven molecules from ChEMBL document CHEMBL5291721, “A preclinical secondary pharmacology resource illuminates target-adverse drug reaction associations of marketed drugs” (Nat Commun, 2023).

One may read the AC50 as the concentration giving half of the maximal activity seen. Read a high AC50 as activity only at high concentration.

Experiment [1] deals with Cannabinoid receptor 1 (Homo sapiens, UniProt P21554). Type of experiment: functional, cell-based.
The target in experiment [2] is T1, Muscarinic acetylcholine receptor M1 (Homo sapiens, UniProt P11229).
T1 sequence (P11229 whole entry): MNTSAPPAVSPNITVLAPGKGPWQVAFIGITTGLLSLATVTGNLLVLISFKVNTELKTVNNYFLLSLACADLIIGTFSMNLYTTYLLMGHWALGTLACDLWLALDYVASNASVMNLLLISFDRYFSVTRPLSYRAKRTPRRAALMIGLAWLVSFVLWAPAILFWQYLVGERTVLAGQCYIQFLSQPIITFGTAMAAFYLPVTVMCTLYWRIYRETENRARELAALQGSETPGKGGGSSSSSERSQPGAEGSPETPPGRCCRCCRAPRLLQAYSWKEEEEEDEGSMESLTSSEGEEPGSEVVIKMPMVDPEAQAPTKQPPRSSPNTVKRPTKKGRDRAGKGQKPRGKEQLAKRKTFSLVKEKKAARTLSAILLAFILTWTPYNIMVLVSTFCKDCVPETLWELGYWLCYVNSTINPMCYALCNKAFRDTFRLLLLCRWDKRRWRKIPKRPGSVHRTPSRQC
It counts as functional.

Experiment [3] addresses Kappa-type opioid receptor (Homo sapiens, UniProt P41145).
The target of experiment [4] is 5-hydroxytryptamine receptor 2A (Homo sapiens, UniProt P28223). Type of experiment: functional, cell-based.
Experiment [5] concerns the target T2, Endothelin-1 receptor (Homo sapiens, UniProt P25101).
T2 sequence (P25101 whole entry): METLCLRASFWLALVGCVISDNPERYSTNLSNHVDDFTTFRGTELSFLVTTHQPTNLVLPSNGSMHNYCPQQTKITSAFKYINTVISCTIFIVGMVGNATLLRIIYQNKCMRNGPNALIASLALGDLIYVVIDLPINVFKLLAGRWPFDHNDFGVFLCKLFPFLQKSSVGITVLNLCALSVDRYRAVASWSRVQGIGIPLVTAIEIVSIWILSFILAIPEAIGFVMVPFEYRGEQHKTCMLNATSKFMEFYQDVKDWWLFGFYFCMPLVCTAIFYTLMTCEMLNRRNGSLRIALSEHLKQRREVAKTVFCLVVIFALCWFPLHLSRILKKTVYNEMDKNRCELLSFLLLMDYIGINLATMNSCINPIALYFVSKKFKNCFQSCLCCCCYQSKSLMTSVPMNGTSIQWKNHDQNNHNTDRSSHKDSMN

Experiment [6] deals with T3, 5-hydroxytryptamine receptor 2B (Homo sapiens, UniProt P41595). It counts as functional, cell-based.
The target in experiment [7] is Muscarinic acetylcholine receptor M3 (Homo sapiens, UniProt P20309).
The target in experiment [8] is T3, 5-hydroxytryptamine receptor 2B. Type of experiment: functional, cell-based. This is another data set of the same source.
Experiment [9] concerns the target Mu-type opioid receptor (Homo sapiens, UniProt P35372). In words: biochemical. It counts as functional.
In experiment [10] the target is T4, Alpha-1A adrenergic receptor (Homo sapiens, UniProt P35348).
T4 sequence (P35348 whole entry): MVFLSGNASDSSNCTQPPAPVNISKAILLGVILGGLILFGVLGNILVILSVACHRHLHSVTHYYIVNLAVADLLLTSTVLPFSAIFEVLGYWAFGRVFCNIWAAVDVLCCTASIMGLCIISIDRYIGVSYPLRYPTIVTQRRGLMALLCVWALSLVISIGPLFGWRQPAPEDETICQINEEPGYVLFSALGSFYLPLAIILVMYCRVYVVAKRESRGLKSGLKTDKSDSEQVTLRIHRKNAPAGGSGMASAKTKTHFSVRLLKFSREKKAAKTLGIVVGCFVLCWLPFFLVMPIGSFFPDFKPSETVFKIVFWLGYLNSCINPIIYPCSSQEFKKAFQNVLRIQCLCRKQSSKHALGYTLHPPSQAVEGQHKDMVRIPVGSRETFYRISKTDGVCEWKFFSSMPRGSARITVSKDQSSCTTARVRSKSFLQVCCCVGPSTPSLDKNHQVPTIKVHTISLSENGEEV
It counts as functional, cell-based.

The target in experiment [11] is T5, Gastrin/cholecystokinin type B receptor (Homo sapiens, UniProt P32239).
T5 sequence (P32239 whole entry): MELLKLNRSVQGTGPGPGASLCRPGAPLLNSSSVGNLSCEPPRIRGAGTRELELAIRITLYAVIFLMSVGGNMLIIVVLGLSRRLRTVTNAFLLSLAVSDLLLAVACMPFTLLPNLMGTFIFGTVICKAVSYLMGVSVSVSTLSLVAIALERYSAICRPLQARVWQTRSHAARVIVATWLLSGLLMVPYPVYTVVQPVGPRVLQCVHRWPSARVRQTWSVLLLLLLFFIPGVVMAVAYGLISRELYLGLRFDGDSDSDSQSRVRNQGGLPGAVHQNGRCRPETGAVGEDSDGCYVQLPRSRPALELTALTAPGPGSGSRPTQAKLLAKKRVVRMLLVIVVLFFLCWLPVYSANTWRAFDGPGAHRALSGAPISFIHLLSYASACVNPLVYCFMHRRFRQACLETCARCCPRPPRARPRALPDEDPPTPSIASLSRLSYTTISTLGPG

In experiment [12] the target is Beta-2 adrenergic receptor (Homo sapiens, UniProt P07550). Type of experiment: functional, cell-based.
Experiment [13] deals with Histamine H3 receptor (Homo sapiens, UniProt Q9Y5N1).
Experiment [14] addresses Prothrombin (Homo sapiens, UniProt P00734). Type of experiment: functional.
Experiment [15] concerns the target Acetylcholinesterase (Homo sapiens, UniProt P22303). Type of experiment: functional.
Further: assay procedure not described here.

Chain of 5-hydroxytryptamine receptor 2A (P28223 whole entry): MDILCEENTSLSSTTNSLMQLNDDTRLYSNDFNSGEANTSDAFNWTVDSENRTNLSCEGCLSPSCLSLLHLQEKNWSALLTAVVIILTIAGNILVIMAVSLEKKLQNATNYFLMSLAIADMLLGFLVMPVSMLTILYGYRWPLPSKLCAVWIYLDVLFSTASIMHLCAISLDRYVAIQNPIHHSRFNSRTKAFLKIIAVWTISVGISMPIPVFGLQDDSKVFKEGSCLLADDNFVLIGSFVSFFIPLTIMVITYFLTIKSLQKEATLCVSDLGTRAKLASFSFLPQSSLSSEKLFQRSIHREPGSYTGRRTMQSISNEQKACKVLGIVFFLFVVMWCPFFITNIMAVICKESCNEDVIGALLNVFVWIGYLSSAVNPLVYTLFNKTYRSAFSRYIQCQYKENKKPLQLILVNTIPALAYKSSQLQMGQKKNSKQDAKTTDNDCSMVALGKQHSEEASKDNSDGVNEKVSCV
T3 sequence (P41595 whole entry): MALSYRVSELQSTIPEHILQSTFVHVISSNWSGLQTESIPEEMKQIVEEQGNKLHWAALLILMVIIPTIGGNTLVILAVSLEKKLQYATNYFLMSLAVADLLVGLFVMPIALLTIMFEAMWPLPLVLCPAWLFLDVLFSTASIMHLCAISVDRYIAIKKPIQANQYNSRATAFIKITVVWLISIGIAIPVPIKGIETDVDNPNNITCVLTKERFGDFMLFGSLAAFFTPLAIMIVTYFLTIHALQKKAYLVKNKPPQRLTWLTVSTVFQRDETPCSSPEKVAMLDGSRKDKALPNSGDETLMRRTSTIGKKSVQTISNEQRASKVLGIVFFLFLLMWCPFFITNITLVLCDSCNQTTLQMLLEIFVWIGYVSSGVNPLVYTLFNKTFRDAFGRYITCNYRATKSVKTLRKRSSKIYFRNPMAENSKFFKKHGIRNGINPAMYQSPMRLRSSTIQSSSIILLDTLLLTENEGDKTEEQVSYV
Chain of Cannabinoid receptor 1 (P21554 whole entry): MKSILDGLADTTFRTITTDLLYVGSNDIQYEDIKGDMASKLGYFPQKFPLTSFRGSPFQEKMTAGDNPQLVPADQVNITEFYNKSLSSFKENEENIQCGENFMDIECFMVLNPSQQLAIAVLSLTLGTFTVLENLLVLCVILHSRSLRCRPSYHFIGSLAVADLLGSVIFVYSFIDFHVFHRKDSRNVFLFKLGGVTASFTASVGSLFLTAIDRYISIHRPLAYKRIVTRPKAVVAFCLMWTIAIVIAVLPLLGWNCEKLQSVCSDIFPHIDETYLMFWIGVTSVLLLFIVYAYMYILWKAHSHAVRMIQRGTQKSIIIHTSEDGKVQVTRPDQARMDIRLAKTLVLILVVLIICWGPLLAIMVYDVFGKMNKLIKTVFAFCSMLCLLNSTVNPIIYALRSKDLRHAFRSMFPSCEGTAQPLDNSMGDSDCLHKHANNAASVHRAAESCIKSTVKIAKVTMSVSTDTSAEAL
Chain of Muscarinic acetylcholine receptor M3 (P20309 whole entry): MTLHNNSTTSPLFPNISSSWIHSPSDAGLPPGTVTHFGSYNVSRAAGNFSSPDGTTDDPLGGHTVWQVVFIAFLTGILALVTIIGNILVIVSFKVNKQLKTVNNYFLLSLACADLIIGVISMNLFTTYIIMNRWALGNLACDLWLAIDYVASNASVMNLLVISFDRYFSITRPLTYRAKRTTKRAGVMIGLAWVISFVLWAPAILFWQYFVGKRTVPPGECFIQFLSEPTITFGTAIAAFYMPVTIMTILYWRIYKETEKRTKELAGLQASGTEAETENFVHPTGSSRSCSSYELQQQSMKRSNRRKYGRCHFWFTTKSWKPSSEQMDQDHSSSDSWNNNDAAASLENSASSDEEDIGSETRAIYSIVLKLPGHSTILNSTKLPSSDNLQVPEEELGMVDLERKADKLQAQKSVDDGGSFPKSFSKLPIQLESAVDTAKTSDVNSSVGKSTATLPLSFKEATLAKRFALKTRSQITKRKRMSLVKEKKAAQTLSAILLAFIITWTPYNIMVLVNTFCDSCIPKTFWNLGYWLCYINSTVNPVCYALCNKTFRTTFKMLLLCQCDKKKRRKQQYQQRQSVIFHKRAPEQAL
Chain of Beta-2 adrenergic receptor (P07550 whole entry): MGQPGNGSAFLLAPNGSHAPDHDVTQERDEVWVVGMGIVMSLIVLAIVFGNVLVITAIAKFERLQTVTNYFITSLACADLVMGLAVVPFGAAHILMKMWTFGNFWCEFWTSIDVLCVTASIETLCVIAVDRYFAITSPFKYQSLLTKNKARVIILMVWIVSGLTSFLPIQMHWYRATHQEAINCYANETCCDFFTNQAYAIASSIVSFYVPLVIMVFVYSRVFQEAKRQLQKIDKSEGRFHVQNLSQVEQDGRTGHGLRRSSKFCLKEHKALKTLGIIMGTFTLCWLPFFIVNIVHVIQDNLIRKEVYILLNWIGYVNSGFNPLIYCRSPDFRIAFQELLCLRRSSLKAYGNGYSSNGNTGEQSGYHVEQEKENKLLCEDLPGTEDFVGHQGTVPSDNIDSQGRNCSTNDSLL
Chain of Kappa-type opioid receptor (P41145 whole entry): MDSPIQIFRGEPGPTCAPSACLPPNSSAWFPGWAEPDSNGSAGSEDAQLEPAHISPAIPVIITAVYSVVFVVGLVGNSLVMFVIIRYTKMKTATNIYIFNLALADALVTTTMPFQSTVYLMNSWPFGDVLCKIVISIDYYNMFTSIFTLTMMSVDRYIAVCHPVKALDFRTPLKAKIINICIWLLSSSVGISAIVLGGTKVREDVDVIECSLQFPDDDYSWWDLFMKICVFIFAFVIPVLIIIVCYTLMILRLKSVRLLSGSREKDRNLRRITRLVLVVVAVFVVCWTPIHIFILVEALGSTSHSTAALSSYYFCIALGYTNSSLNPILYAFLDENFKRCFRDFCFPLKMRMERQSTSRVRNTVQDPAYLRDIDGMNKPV
Chain of Mu-type opioid receptor (P35372 whole entry): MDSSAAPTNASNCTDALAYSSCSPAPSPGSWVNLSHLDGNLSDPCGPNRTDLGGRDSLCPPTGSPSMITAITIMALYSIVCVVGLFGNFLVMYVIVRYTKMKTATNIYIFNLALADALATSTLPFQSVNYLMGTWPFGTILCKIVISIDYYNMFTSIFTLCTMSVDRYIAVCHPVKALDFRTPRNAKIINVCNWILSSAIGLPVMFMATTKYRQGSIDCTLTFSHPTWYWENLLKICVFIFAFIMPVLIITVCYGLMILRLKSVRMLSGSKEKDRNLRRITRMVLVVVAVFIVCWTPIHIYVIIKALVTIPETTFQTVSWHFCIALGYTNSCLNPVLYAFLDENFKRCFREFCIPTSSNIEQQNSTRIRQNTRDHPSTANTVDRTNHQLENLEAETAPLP
Chain of Histamine H3 receptor (Q9Y5N1 whole entry): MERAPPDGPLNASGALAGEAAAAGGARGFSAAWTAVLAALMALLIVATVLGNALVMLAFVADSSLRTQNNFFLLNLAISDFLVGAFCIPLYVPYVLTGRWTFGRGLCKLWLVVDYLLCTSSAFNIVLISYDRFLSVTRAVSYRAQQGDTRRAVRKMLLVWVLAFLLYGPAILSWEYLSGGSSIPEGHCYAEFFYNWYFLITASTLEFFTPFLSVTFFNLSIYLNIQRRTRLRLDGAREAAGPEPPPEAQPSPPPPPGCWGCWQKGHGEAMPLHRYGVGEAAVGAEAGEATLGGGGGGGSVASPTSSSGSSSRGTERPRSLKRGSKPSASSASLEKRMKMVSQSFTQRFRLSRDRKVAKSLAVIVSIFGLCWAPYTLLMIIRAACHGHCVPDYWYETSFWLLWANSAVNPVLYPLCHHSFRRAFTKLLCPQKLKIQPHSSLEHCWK
Chain of Acetylcholinesterase (P22303 whole entry): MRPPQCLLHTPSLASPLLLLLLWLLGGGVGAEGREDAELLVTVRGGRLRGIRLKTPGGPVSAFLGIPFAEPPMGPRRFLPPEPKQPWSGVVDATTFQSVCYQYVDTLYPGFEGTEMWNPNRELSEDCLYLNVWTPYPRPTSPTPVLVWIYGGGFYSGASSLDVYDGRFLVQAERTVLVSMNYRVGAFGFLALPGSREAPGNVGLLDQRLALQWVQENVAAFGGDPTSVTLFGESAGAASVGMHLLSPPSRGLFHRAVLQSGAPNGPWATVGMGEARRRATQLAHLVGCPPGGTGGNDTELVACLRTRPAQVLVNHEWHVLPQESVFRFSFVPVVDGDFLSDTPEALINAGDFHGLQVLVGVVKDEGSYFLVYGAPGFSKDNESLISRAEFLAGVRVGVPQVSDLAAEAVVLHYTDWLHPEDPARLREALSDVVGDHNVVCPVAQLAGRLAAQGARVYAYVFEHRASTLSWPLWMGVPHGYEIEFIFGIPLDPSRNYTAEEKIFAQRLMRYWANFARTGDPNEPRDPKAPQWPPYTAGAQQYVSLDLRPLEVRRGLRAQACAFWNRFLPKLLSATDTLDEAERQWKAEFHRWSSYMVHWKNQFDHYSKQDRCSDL

In the case of `CC(=O)N[C@@H](CS)C(=O)O` [ACETYLCYSTEINE], the AC50 in experiment [1], in experiment [2], in experiment [3], in [4], in experiment [5] and in experiment [6] was over 30 µM throughout. The half-maximal activity concentration (AC50) in [7], in experiment [8], in [9], in [10], in [11] and in [12] was over 30 µM throughout.
Consider `C/N=C(\NC)NCc1ccccc1` [BETHANIDINE], for which the half-maximal activity concentration (AC50) in [1], in experiment [2], in experiment [3], in experiment [4], in [5] and in [6] was over 30 µM each time. Further, the concentration at half-maximal activity (AC50) in experiment [7], in [8], in experiment [9], in [10], in experiment [11] and in experiment [12] was over 30 µM throughout.
On to `CCC(C)C1(CC)C(=O)NC(=O)NC1=O` (stereo not given) [BUTABARBITAL], for which the AC50 in experiment [1], in experiment [2], in experiment [4], in [5], in [6] and in experiment [8] was over 30 µM throughout. The concentration at half-maximal activity (AC50) in experiment [9], in experiment [10], in experiment [11] and in experiment [12] was over 30 µM in each case.
As to `C[C@]12CC[C@@H]3c4ccc(O)cc4C[C@@H](CCCCCCCCC[S+]([O-])CCCC(F)(F)C(F)(F)F)[C@H]3[C@@H]1CC[C@@H]2O` (stereo not given in full) [FULVESTRANT], the concentration at half-maximal activity (AC50) in [1], in experiment [2], in [3], in [4], in experiment [5] and in experiment [6] was over 30 µM throughout. The AC50 in [7], in experiment [8], in experiment [9], in experiment [10], in experiment [11] and in experiment [12] was over 30 µM throughout.
Consider `O=[N+]([O-])c1ccc(O)c2ncccc12` [NITROXOLINE], for which the half-maximal activity concentration (AC50) in [1] is over 30 µM; in [2], 8.5 µM; in [3], 9.3 µM; in experiment [13] it was over 30 µM; in experiment [4], over 30 µM; in experiment [6], over 30 µM. Also, the AC50 in [7] was 7.6 µM; in experiment [14], over 30 µM; in [8], over 30 µM; in experiment [10] it was over 30 µM; in [12], over 30 µM; in experiment [15], over 10 µM.
Take `CCC(C)C(CC)C(N)=O` (stereo not given) [VALNOCTAMIDE]: the AC50 in experiment [1], in experiment [2], in [3], in experiment [4], in experiment [5] and in experiment [7] was over 30 µM each time. Also, the half-maximal activity concentration (AC50) in experiment [8], in experiment [9], in experiment [10], in experiment [11] and in experiment [12] was over 30 µM each time.
With `CCOC(=O)C1=C[C@]2(CC)CCCN3CCc4c(n1c1ccccc41)[C@@H]32` [VINPOCETINE], the AC50 in experiment [1], in experiment [2], in [3], in [4], in [5] and in [7] was over 30 µM in each case. Further, the AC50 in experiment [8] is 13 µM; in experiment [9] it was over 30 µM; in experiment [10], over 30 µM; in [11], over 30 µM; in experiment [12], over 30 µM.
